Assay results reported in publication PMC8518114, “Safety, tolerability and pharmacokinetics of emodepside, a potential novel treatment for onchocerciasis (river blindness), in healthy male subjects” (British Journal of Clinical Pharmacology, 2021).

Tested on: healthy male subjects
Assay: Safety: treatment-emergent adverse events, SAD study
Type: in vivo, human
Method: Safety was assessed by monitoring adverse events (AEs) throughout the studies that were coded using the standard Medical Dictionary for Regulatory Activities (MedDRA) dictionary (versions 19.0 [SAD part 1], 20.0 [SAD part 2] and 21.1 [MAD]). Other safety monitoring included 12‐lead electrocardiography recordings, measurement of vital signs (systolic and diastolic blood pressure and heart rate), physical and neurological (Hamilton depression rating scale[17] and Beck depression inventory‐II fastscreen[18] [SAD only], mental status examination, cranial nerves assessment and motor system examination, sensation to light touch, coordination/cerebellar function assessment, Romberg's test, gait test, daytime sleepiness assessment [SAD and MAD studies]) examinations, haematology, biochemistry and urinalysis. To minimise risks in the SAD and MAD studies, subjects were dosed sequentially using sentinels in each cohort (1 IP, 1 placebo) as per European Medicines Agency guidelines.[19] If the previous dose was well tolerated, with no safety concerns, dose escalation was decided by the Safety Review Group after reviewing safety and PK data from all available cohorts. Moreover, treatment with the highest dose in the SAD study was repeated (cohort 10) for regular ophthalmological evaluations (assessments available as supplementary information) to better characterise visual AEs observed in the SAD study. Regular ophthalmological assessments were also performed in the MAD study.

## CC(C)C[C@H]1C(=O)O[C@H](Cc2ccc(N3CCOCC3)cc2)C(=O)N(C)[C@@H](CC(C)C)C(=O)O[C@H](C)C(=O)N(C)[C@@H](CC(C)C)C(=O)O[C@H](Cc2ccc(N3CCOCC3)cc2)C(=O)N(C)[C@@H](CC(C)C)C(=O)O[C@H](C)C(=O)N1C [emodepside]
SAD Part 1, 0.1 mg LSF n = 1
  Any TEAE: 1 (100) n (%)
  TEAE: Eye disorders: 0 n (%)
  TEAE: Gastrointestinal disorders: 0 n (%)
  TEAE: General disorders and administration site disorders: 0 n (%)
  TEAE: Infections and infestations: 1 (100) n (%)
  TEAE: Injury, poisoning and procedural complications: 0 n (%)
  TEAE: Musculoskeletal and connective tissue disorders: 0 n (%)
  TEAE: Nervous system disorders: 0 n (%)
  TEAE: Psychiatric disorders: 0 n (%)
  TEAE: Respiratory, thoracic and mediastinal disorders: 0 n (%)
SAD Part 1, 1 mg LSF n = 5
  Any TEAE: 3 (60.0) n (%)
  TEAE: Eye disorders: 0 n (%)
  TEAE: Gastrointestinal disorders: 0 n (%)
  TEAE: General disorders and administration site disorders: 0 n (%)
  TEAE: Infections and infestations: 0 n (%)
  TEAE: Injury, poisoning and procedural complications: 0 n (%)
  TEAE: Musculoskeletal and connective tissue disorders: 1 (20.0) n (%)
  TEAE: Nervous system disorders: 2 (40.0) n (%)
  TEAE: Psychiatric disorders: 0 n (%)
  TEAE: Respiratory, thoracic and mediastinal disorders: 0 n (%)
SAD Part 1, 2.5 mg LSF n = 6
  Any TEAE: 0 n (%)
  TEAE: Eye disorders: 0 n (%)
  TEAE: Gastrointestinal disorders: 0 n (%)
  TEAE: General disorders and administration site disorders: 0 n (%)
  TEAE: Infections and infestations: 0 n (%)
  TEAE: Injury, poisoning and procedural complications: 0 n (%)
  TEAE: Musculoskeletal and connective tissue disorders: 0 n (%)
  TEAE: Nervous system disorders: 0 n (%)
  TEAE: Psychiatric disorders: 0 n (%)
  TEAE: Respiratory, thoracic and mediastinal disorders: 0 n (%)
SAD Part 1, 5 mg IRT n = 5
  Any TEAE: 3 (60.0) n (%)
  TEAE: Eye disorders: 1 (20.0) n (%)
  TEAE: Gastrointestinal disorders: 0 n (%)
  TEAE: General disorders and administration site disorders: 0 n (%)
  TEAE: Infections and infestations: 0 n (%)
  TEAE: Injury, poisoning and procedural complications: 0 n (%)
  TEAE: Musculoskeletal and connective tissue disorders: 1 (20.0) n (%)
  TEAE: Nervous system disorders: 1 (20.0) n (%)
  TEAE: Psychiatric disorders: 1 (20.0) n (%)
  TEAE: Respiratory, thoracic and mediastinal disorders: 0 n (%)
SAD Part 1, 5 mg LSF n = 6
  Any TEAE: 3 (50.0) n (%)
  TEAE: Eye disorders: 0 n (%)
  TEAE: Gastrointestinal disorders: 1 (16.7) n (%)
  TEAE: General disorders and administration site disorders: 2 (33.3) n (%)
  TEAE: Infections and infestations: 1 (16.7) n (%)
  TEAE: Injury, poisoning and procedural complications: 0 n (%)
  TEAE: Musculoskeletal and connective tissue disorders: 1 (16.7) n (%)
  TEAE: Nervous system disorders: 1 (16.7) n (%)
  TEAE: Psychiatric disorders: 0 n (%)
  TEAE: Respiratory, thoracic and mediastinal disorders: 0 n (%)
SAD Part 1, 10 mg LSF n = 6
  Any TEAE: 5 (83.3) n (%)
  TEAE: Eye disorders: 2 (33.3) n (%)
  TEAE: Gastrointestinal disorders: 0 n (%)
  TEAE: General disorders and administration site disorders: 0 n (%)
  TEAE: Infections and infestations: 1 (16.7) n (%)
  TEAE: Injury, poisoning and procedural complications: 0 n (%)
  TEAE: Musculoskeletal and connective tissue disorders: 0 n (%)
  TEAE: Nervous system disorders: 1 (16.7) n (%)
